O=C(O)c1cccnc1Nc1cccc(C(F)(F)F)c1
solubility (mole fraction)
Details	288.15 K	293.15 K	298.15 K	303.15 K	308.15 K	313.15 K	318.15 K	323.15 K	328.15 K
in MTBE	0.0428	0.0471	0.0505	0.0549	0.0591	0.0663	0.073	0.08	0.0854
in acetone	0.0273	0.0296	0.0315	0.034	0.037	0.0418	0.048	0.053	0.0572
in acetonitrile	–	0.00125	0.0018	0.00235	0.00319	0.00437	0.00595	0.00745	0.00898
in cyclohexane	0.00268	0.00379	0.00512	0.00674	0.00887	0.0114	0.0137	0.0158	0.0182
in diisopropyl ether	0.00814	0.0119	0.0146	0.0183	0.022	0.0262	0.0303	0.0357	0.0424
in ethanol	0.00748	0.00873	0.00935	0.0113	0.0133	0.0153	0.0177	0.0197	0.0211
in ethyl acetate	0.0243	0.0261	0.0279	0.0308	0.0346	0.0393	0.0439	0.0494	0.0544
